The values that follow come from US9994862B2, “Rice resistant to HPPD and ACCase inhibiting herbicides” (priority 2011, dated 2018).

“Also recorded” adds a separate entry of the source.

The test system of assay [1] is permanent mutant population (lines derived from P1003, R0146, P1062). The assay can be described thus: Mesotrione screening of the permanent mutant population. It counts as in vivo, rice. The following applies: 255.1 gm ai per acre, within twelve hours after planting. The source says: A mutation breeding program was initiated to develop proprietary herbicide resistant/tolerant lines. A permanent mutant population was created by exposing approximately 10,000 seeds (estimated by the average weight of a kernel) of three rice lines including P1003, R0146, and P1062 to both mutagens sodium azide (AZ) and methyl-nitrosourea (MNU). The treated seeds were planted. Individual plants were harvested creating 8,281 potentially […] lines. The lines have been maintained as a permanent mutant population for trait screening.
Resistance to mesotrione herbicide was found by screening the permanent mutant population. All lines in the permanent mutant population were planted into a dry seed bed. Within twelve hours after planting mesotrione (Callisto®) was applied at a rate of 255.1 gm ai per acre. The field was immediately flushed with water and kept moist through periodic flushing. The seedlings grew, many were bleached white and all lines derived from R0146 died whereas plants lived from 21 lines derived from the P1003 and 2 derived from P1062 mutation populations. The HPPD gene was sequenced, and no genetic mutation was identified causing any amino acid substitutions (SEQ ID NOs: 1, 2, 3).

Assay [2] has as its system mutant line ML0831266-03093. The assay can be described thus: Mesotrione tolerance trials / herbicide bioassay. It counts as in vivo, rice. As for the experimental part: After the initial screening of the “mutation population,” the lines with no damage were selected and tested in additional experiments using different rates of the herbicide. In particular, a rate response experiment was conducted in which two different rates of mesotrione were applied pre-emergence, plus an additional foliar application was also applied. […] Progeny of this designated ML0831266-03093 are maintained as a new line carrying resistance to mesotrione herbicide. Seeds are deposited under ATCC PTA-13620. The line (ML0831266-03093) is a source of resistance that is backcrossed into proprietary rice lines or used directly in breeding to develop new proprietary rice lines. The developed lines are a source of herbicide resistance for use in development of new hybrids that offer an alternative mode of action to control weeds in rice. Affording this opportunity to growers is of great value both in providing high yields and in extending the useful life of available weed control technologies. These herbicide resistant traits can be tracked through the simple application of herbicides to growing plants.
Selection of material inheriting mesotrione tolerance is accomplished by a simple herbicide bioassay. A high rate of mesotrione (at least 420 gm ai/ha) is applied allowing differentiation of heterozygous individuals from homozygous individuals and the tolerance level of the […] line from the inherent tolerance level in the background of some types of rice. In one example a rate of 105 gm ai/ha is applied followed three weeks later by a second application of 630 gm ai/ha. In another example a rate of 420 gm ai/ha is applied in a single application. Yet another example entails applying the herbicide at a rate of 630 gm ai/ha. Herbicide applications are done at the three to four leaf stage of seedling growth. The ideal situation is to have also planted near or within the plants to be selected a set of plants from the original mutant mesotrione tolerant donor line ML0831266-03093, (FIG. 18A) a row of plants of the wild-type of the […] line, P1003 (FIG. 18B), and a row of the line involved as the other parent in the cross (FIG. 18C). These control lines allow easy differentiation for inheritance of the tolerance provided by the ML0831266-03093 mutant line through comparison of the response in the plants to be selected with the control lines. Only plants that live and are relatively healthy will have inherited and be homozygous for the tolerance level provided by the ML0831266-03093 mutant line (FIG. 18A).
The mutant line is planted in rows or alternatively whole plots are planted and rows of the unmutated line (P1003) and other types of rice or whole plots are planted. Mesotrione is applied pre-emergence or alternatively it is applied post-emergence at the three to four leaf stage of the rice plants. Various rates of mesotrione are applied pre-emergence, pre-emergence followed by post-emergent, or post-emergent with a single or sequential application. Post-emergent applications are applied at the 3-4 leaf stage of the rice.
Seedlings of size 3 to 4 leaves are sprayed with mesotrione herbicide. In one set of 89 plants mesotrione is first applied at 105 gm ai/ha killing 23 plants. Both the mutant line control ML0831266-03093 and the unmutated line P1003 survived the herbicide application while the unmutated line R0146 was killed. […]

For assay [3], the system named is line PL1214418M2-80048. The assay can be described thus: Herbicide tolerance of the combined HPPD and ACCase line. On the set-up: species or system rice. The settings on record: in vivo. The text has this:
An early maturing group of plants was harvested as early as possible and the seeds planted in the greenhouse to help quickly advance to the F4 generation. Selections on the F3 plants were made by molecular markers flanking the HPPD tolerance mutation and native tolerance the ACCase functional mutation. Homozygous plants for all the selected genomic regions were advanced to the F5 generation. The F5 seed was confirmed to carry tolerance to ACCase herbicides and the HPPD herbicide mesotrione. Among the F5 lines PL1214418M2-80048 was selected due to a high seed yield and being homozygous for the ACCase tolerance mutation at position G2096S, the HPPD tolerance mutation, and the HPPD tolerance native gene. Seed from the line PL1214418M2-80048 was deposited at the ATCC and given a deposit number PTA-121362 (see Table 8).
Individuals with tolerance to both mesotrione and ACCase herbicides were selfed to produce F3 families and further selected for other important agronomic characters. The F3 lines were selfed and purified to derive a new line or variety with dual resistance to mesotrione and ACCase herbicides. Such lines are highly valuable as the use of both herbicides provides more complete and broad-spectrum weed control. […]

For the compound `CS(=O)(=O)c1ccc(C(=O)C2C(=O)CCCC2=O)c([N+](=O)[O-])c1` [mesotrione], in assay [1], the “number of lines derived from P1003 with plants that lived” value turned out to be 21 lines, the “number of lines derived from P1062 with plants that lived” value worked out at 2 lines and the “response of lines derived from R0146” value is given as “died”. In addition, the tolerance to mesotrione result in assay [2] (420 gm ai/ha) was “tolerant”. In addition, the “tolerance to mesotrione in the presence of common rice weeds” value in assay [2] (applied rates of mesotrione, FIG. 6) was “completely tolerant”. Besides, the survival after mesotrione entry in assay [2] (higher rates) is on record as “survives”. Moreover, the survival after mesotrione result in assay [2] (low rate 105 gm ai/ha) is “survived”. Further, the “response of the rice to mesotrione” value in assay [2] (one application at 105 gai/ha followed by a second application of 630 gai/ha) was “tolerant; also recorded: little damage”. Besides, the “tolerance to the herbicide” value in assay [3] is “tolerance”.
